Measurements published in publication PMC4890880 (ACS infectious diseases, 2016).
pIC50: −log10 of the molar value. Where a name gives a salt, the structure may show the parent alone. Read-outs that look alike come from different tables or passages of the source.

Columns and labels:
[1] = system: P. falciparum 3D7 parasites; test: Asexual erythrocytic-stage SYBR Green I proliferation assay, 1536-well; format: cell-based, Plasmodium falciparum
[2] = system: Plasmodium berghei (Pb-Luc) exoerythrocytic-stage parasites; test: microbe, parasite or virus in culture
[3] = system: Plasmodium berghei (Pb-Luc) exoerythrocytic-stage parasites; details: read-out: P. berghei (liver) IC50; Table S1, validation set of 50 antimalarials; Pb-Luc
HepG2-A16-CD81EGFP cells = test: cells; details: Homo sapiens
[4] = target: QuantiLum Recombinant Luciferase (Photinus pyralis, UniProt P08659); test: Bioluminescence quantification of compound luciferase inhibition
QuantiLum Recombinant Luciferase, sequence (P08659 whole entry): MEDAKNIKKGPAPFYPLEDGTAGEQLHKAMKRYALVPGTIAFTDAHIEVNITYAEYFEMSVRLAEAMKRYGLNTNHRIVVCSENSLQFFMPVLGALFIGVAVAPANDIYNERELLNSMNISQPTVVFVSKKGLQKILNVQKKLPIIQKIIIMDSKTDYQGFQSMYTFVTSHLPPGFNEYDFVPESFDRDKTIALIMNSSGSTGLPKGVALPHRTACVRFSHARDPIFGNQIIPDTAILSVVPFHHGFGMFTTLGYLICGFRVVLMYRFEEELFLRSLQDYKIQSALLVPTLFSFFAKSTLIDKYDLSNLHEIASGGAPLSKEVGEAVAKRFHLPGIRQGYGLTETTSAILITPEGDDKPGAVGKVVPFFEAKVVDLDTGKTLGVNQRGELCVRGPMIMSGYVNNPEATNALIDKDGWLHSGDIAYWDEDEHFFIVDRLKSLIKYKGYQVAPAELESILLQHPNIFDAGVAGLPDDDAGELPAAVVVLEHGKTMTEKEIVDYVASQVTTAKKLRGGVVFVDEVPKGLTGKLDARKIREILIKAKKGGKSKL

[5] = system: Plasmodium cynomolgi exoerythrocytic-stage small (hypnozoites) and large (liver stage schizonts) parasites; test: P. cynomolgi liver assay in primary hepatocytes; details: Plasmodium cynomolgi, Hepatocyte
[6] = Plasmodium falciparum, 3D7, read-out: P. falciparum (blood) IC50
[7] = read-out: P. berghei (liver) IC50
[8] = Plasmodium falciparum, 3D7, read-out: P. falciparum (blood) IC50, Table S1, validation set of 50 antimalarials
[9] = read-out: P. berghei (liver) IC50, Table S1, validation set of 50 antimalarials, Pb-Luc
[10] = read-out: P. falciparum (blood) IC50, Table S1, validation set of 50 antimalarials
[11] = read-out: % inhibition normalized to untreated control, Large
[12] = read-out: % inhibition normalized to untreated control, Small

Row | Compound | pIC50 [1, 8] | pIC50 [2, 9] | further results
1 | C[C@@H]1C[C@@H]([C@H](O)CC2CC(=O)NC(=O)C2)C(=O)[C@@H](C)C1 [Cycloheximide, reference compound] |  |  | pIC50 [1, 6]: 8.74; pIC50 [2, 7]: 7.68
2 | CCN(CCO)CCCC(C)Nc1ccnc2cc(Cl)ccc12 (stereo not shown) [Hydroxychloroquine, reference compound] | 7.86 | < 4.90 | 
3 | C[C@]12CC[C@H](OS(=O)(=O)O)CC1=CC[C@@H]1[C@@H]2CC[C@]2(C)C(=O)CC[C@@H]12 [Dehydroepiandrosterone sulphate, reference compound] |  |  | pIC50 [1, 10]: < 4.20; pIC50 [3]: < 4.90
4 | OC(c1cc(C(F)(F)F)nc2c(C(F)(F)F)cccc12)C1CCCCN1 (stereo not shown) [Mefloquine (+ RS), Mefloquine, reference compound] |  | 5.63 | pIC50 [1, 10]: 7.78
5 | N=C(N)c1ccc(OCCCCCOc2ccc(C(=N)N)cc2)cc1 [Pentamidine, reference compound] | 9.30 | 6.54 | 
6 | C[C@H]1[C@H](N2CCS(=O)(=O)CC2)O[C@@H]2O[C@@]3(C)CC[C@H]4[C@H](C)CC[C@@H]1[C@@]24OO3 [Artemisone, reference compound] | 9.15 | 6.75 | 
7 | C[C@H]1[C@@H](O)O[C@@H]2O[C@@]3(C)CC[C@H]4[C@H](C)CC[C@@H]1[C@@]24OO3 [Artenimol, reference compound] | > 9.40 | 5.81 | 
8 | Nc1ccc(S(=O)(=O)Nc2ncccn2)cc1 [Sulfadiazine, reference compound] | < 4.20 |  | pIC50 [2, 7]: 7.80
9 | COc1ccc2nc3cc(Cl)ccc3c(Nc3cc(CN4CCCC4)c(O)c(CN4CCCC4)c3)c2n1 [Pyronaridine, reference compound] | 8.02 | 5.17 | 
10 | c1cc([C@H]2CC[C@]3(CC2)OO[C@]2(O3)C3CC4CC(C3)CC2C4)ccc1OCCN1CCOCC1 [OZ439, reference compound] | 8.55 | 5.28 | 
11 | O=CN(O)CCCP(=O)(O)O [Fosmidomycin, reference compound] | < 5.00 | < 4.90 | 
12 | CCN(CC)Cc1cc(Nc2ccnc3cc(Cl)ccc23)ccc1O [Amodiaquine, reference compound] | < 4.20 | 5.80 | 
13 | C=C[C@H]1C[N@@]2CC[C@H]1C[C@H]2[C@H](O)c1ccnc2ccc(OC)cc12 [Quinine sulfate dihydrate, reference compound] | 7.91 | < 4.90 | 
14 | CC(C)(N)CNC(=O)C[C@H]1CC[C@]2(CC1)OO[C@]1(O2)C2CC3CC(C2)CC1C3 [OZ277, reference compound] | 8.64 | 5.79 | 
15 | CCCCN(CCCC)CCC(O)c1cc2c(Cl)cc(Cl)cc2c2cc(C(F)(F)F)ccc12 (stereo not shown) [Halofantrine, reference compound] | 8.82 | 5.55 | 
16 | CCc1nc(N)nc(N)c1OCCCOc1ccccc1CCC(=O)O [P218.HCl, reference compound] |  |  | pIC50 [1, 10]: 9.40; pIC50 [3]: 9.04
17 | Nc1ccc(S(=O)(=O)c2ccc(N)cc2)cc1 [Dapsone, reference compound] | < 4.20 | 5.61 | 
18 | C[C@H]1c2cccc(O)c2C(O)=C2C(=O)[C@]3(O)C(O)=C(C(N)=O)C(=O)[C@@H](N(C)C)[C@@H]3[C@@H](O)[C@@H]21 [Doxycyclin, reference compound] |  |  | pIC50 [1, 10]: 5.05; pIC50 [3]: 4.94
19 | CN(C)c1ccc2nc3ccc(=[N+](C)C)cc-3sc2c1 [Methylene Blue, reference compound] | 5.10 | 7.02 | 
20 | Clc1ccc2c(N3CCN(CCCN4CCN(c5ccnc6cc(Cl)ccc56)CC4)CC3)ccnc2c1 [Piperaquine, reference compound] | 7.14 | < 4.90 | 
21 | COc1cc(N[C@H](C)CCCN)c2nccc(C)c2c1Oc1ccc(Cl)c(Cl)c1 [NPC-1161B, reference compound] |  |  | pIC50 [1, 10]: 5.88; pIC50 [3]: 5.45
22 | CN(C)[C@@H]1C(O)=C(C(N)=O)C(=O)[C@@]2(O)C(O)=C3C(=O)c4c(O)cccc4[C@@](C)(O)[C@H]3C[C@@H]12 [Tetracycline, reference compound] | < 5.00 |  | pIC50 [2, 7]: < 4.90

Row | Compound | pIC50 [1, 8] | pIC50 [2, 9] | further results
23 | CC(=O)N[C@@H](C(=O)O)C(C)(C)S [N-acetyl-D-penicillamine, reference compound] |  |  | pIC50 [1, 10]: < 4.20; pIC50 [3]: < 4.90
24 | [H]/N=C(\N/C(=N/[H])Nc1ccc(Cl)cc1)NC(C)C [Proguanil HCL, reference compound] | 5.20 | 5.34 | 
25 | CCN(CC)CCCNc1ccnc2cc(Cl)ccc12 [AQ-13, reference compound] |  |  | pIC50 [1, 10]: 8.06; pIC50 [3]: 5.50
26 | COc1cc(C)c2c(Oc3cccc(C(F)(F)F)c3)c(OC)cc(NC(C)CCCN)c2n1 (stereo not shown) [Tafenoquine, reference compound] | 5.55 | 5.23 | 
27 | CO[C@H]1O[C@@H]2O[C@@]3(C)CC[C@H]4[C@H](C)CC[C@@H]([C@H]1C)[C@@]24OO3 [Artemether, reference compound] | > 9.40 | 5.50 | 
28 | COc1ccc(C2=C(c3ccc(OC)cc3)C3(c4ccccc4)C(=O)C2(c2ccccc2)C2C(=O)N(c4ccc(C)cc4)C(=O)C23)cc1 (stereo not shown) [MMV666101] |  |  | cytotoxicity at 50 µM (HepG2-A16-CD81EGFP cells; HepG2, read-out: HepG2 Tox% @ 50 uM rep1): 0.41%; cytotoxicity at 50 µM (HepG2-A16-CD81EGFP cells; HepG2, read-out: HepG2 Tox% @ 50 uM rep2): 3.59%; pIC50 (HepG2-A16-CD81EGFP cells; HepG2, read-out: Tox IC50): < 5.00; inhibition at 10 µM (HepG2-A16-CD81EGFP cells; HepG2, read-out: Tox max inhibition (%) @ 10 uM): 1.34%; inhibition at 50 µM ([2]; read-out: Inhibition% @ 50 uM rep1): 96%; inhibition at 50 µM ([2]; read-out: Inhibition% @ 50 uM rep2): 100%; pIC50 ([2]; read-out: PbLuc IC50, dose response, 1/3 dilutions, max conc. 10 or 50 uM, unit inferred): 6.70; inhibition at 10 µM ([2]; read-out: PbLuc max inhibition (%) @ 10 uM): 106%; pIC50 [4]: < 4.70; Emax ([4]; read-out: LucInhib max inhibition): 18%; inhibition at 0.1 µM [5, 11]: 7%; inhibition at 1 µM [5, 11]: 11%; inhibition at 10 µM [5, 11]: 17%; inhibition at 0.1 µM [5, 12]: 4%; inhibition at 1 µM [5, 12]: 19%; inhibition at 10 µM [5, 12]: 11%
29 | CCN(CC)CCCC(C)Nc1ccnc2cc(Cl)ccc12 (stereo not shown) [Chloroquine, reference compound] |  |  | pIC50 [1, 6]: 8.68; pIC50 [2, 7]: < 4.90
30 | CCCCN(CCCC)CC(O)c1cc(Cl)cc2c1-c1ccc(Cl)cc1/C2=C/c1ccc(Cl)cc1 (stereo not shown) [Lumefantrine, reference compound] | 8.14 | < 4.90 | 
31 | C=C[C@H]1C[N@@]2CC[C@H]1C[C@@H]2[C@@H](O)c1ccnc2ccc(OC)cc12 [Quinidine, reference compound] | 8.54 | < 4.90 | 
32 | Cc1cc2nc3c(=O)[nH]c(=O)nc-3n(C[C@H](O)[C@H](O)[C@H](O)CO)c2cc1C [Riboflavin, reference compound] | < 4.20 | < 4.90 | 
33 | Cc1cc(NS(=O)(=O)c2ccc(N)cc2)no1 [Sulfamethoxazole] | < 5.00 |  | 
34 | C[C@H]1[C@H](OC(=O)CCC(=O)O)O[C@@H]2O[C@@]3(C)CC[C@H]4[C@H](C)CC[C@@H]1[C@@]24OO3 [Artesunate, reference compound] | 9.05 | 6.61 | 
35 | CC[C@H]1OC(=O)[C@H](C)[C@@H](O[C@H]2C[C@@](C)(OC)[C@@H](O)[C@H](C)O2)[C@H](C)[C@@H](O[C@@H]2O[C@H](C)C[C@H](N(C)C)[C@H]2O)[C@](C)(O)C[C@@H](C)CN(C)[C@H](C)[C@@H](O)[C@]1(C)O [Azithromycin, reference compound] | 6.59 | < 4.90 | 
36 | C[C@@H]1CC[C@H]2[C@@H](C)C(=O)O[C@@H]3O[C@@]4(C)CC[C@@H]1[C@]32OO4 [Artemisinin, reference compound] | 8.33 | 5.77 | 
37 | COc1ncnc(NS(=O)(=O)c2ccc(N)cc2)c1OC [Sulfadoxine, reference compound] | < 4.20 | 7.13 | 
38 | OC(c1cc(C(F)(F)F)nc2c(C(F)(F)F)cccc12)C1CCCCN1 (racemic) [Mefloquine (Racemic), Mefloquine, reference compound] |  |  | pIC50 [1, 10]: > 9.40; pIC50 [3]: 5.51
39 | C=C(NC(=O)C(=C)NC(=O)c1csc(C2=N[C@@H]3c4csc(n4)[C@H]4NC(=O)c5csc(n5)[C@H]([C@](C)(O)[C@@H](C)O)NC(=O)[C@H]5CSC(=N5)/C(=C/C)NC(=O)[C@H]([C@@H](C)O)NC(=O)c5csc(n5)[C@]3(CC2)NC(=O)[C@H](C)NC(=O)C(=C)NC(=O)[C@H](C)NC(=O)[C@H]([C@@H](C)CC)N[C@@H]2C=Cc3c([C@H](C)O)cc(nc3[C@H]2O)C(=O)O[C@@H]4C)n1)C(N)=O [Thiostrepton, reference compound] |  |  | pIC50 [1, 6]: 5.72; pIC50 [2, 7]: 5.50
40 | Trans-Mirincamycin [reference compound] |  |  | pIC50 [1, 10]: < 5.00; pIC50 [3]: < 4.90
41 | COc1cc(Cc2cnc(N)nc2N)cc(OC)c1OC [Trimethoprim] | 5.25 |  | 
42 | CC(C)(C)NCc1cc(Nc2ccnc3cc(Cl)ccc23)c2c(c1O)CCCC2 [Naphthoquine, reference compound] |  |  | pIC50 [1, 10]: 7.94; pIC50 [3]: 6.41
43 | CCCCC[C@H]1CN[C@H](C(=O)N[C@H]([C@H]2O[C@H](SC)[C@H](O)[C@@H](O)[C@H]2O)[C@@H](C)Cl)C1 (relative stereo) [Cis-Mirincamycin, reference compound] |  |  | pIC50 [1, 10]: 5.12; pIC50 [3]: < 4.90
44 | CC(C)NC(=N)NC(=N)Nc1ccc(Cl)c(Cl)c1 [Chlorproguanil HCL, reference compound] |  |  | pIC50 [1, 10]: 5.33; pIC50 [3]: 6.30
